Assay results reported in patent US12077503B2, “Substituted cyclic amides and their use as herbicides” (FMC CORPORATION, priority 2015, dated 2024).

Columns and labels:
Format in all cases: in vivo
[1] = tested on: ryegrass, Italian (Italian ryegrass, Lolium multiflorum); assay: Test A preemergence; settings: Lolium multiflorum, pre-emergence, 240 h, read-out: Plant response rating, Ryegrass, Italian
Summary of the method: (§1)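 Seeded soil received test chemicals as a preemergence directed spray, and seedlings at one to two leaves, 2–10 cm tall, received them postemergence, in a non-phytotoxic, surfactant-containing solvent mixture. Pots were held in a greenhouse for approximately 10 d, then rated for injury from 0, no effect, to 100, complete control.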

[2] = tested on: Kochia (Kochia scoparia); assay: Test A preemergence; settings: Bassia scoparia, pre-emergence, 240 h, read-out: Plant response rating, Kochia
Summary of the method: as §1

[3] = tested on: ragweed (common ragweed, Ambrosia elatior); assay: Test A preemergence; settings: Ambrosia artemisiifolia, pre-emergence, 240 h, read-out: Plant response rating, Ragweed
Summary of the method: as §1

[4] = tested on: pigweed (Amaranthus retroflexus); assay: Test A preemergence; settings: Amaranthus retroflexus, pre-emergence, 240 h, read-out: Plant response rating, Pigweed
[5] = tested on: giant foxtail (Setaria faberii); assay: Test A preemergence; settings: Setaria faberi, pre-emergence, 240 h, read-out: Plant response rating, Foxtail, Giant
Summary of the method: as §1

[6] = tested on: blackgrass (Alopecurus myosuroides); assay: Test A postemergence; settings: Alopecurus myosuroides, post-emergence, 240 h, read-out: Plant response rating, Blackgrass
Summary of the method: as §1

[7] = tested on: ryegrass, Italian (Italian ryegrass, Lolium multiflorum); assay: Test A postemergence; settings: Lolium multiflorum, post-emergence, 240 h, read-out: Plant response rating, Ryegrass, Italian
Summary of the method: as §1

[8] = tested on: Kochia (Kochia scoparia); assay: Test A postemergence; settings: Bassia scoparia, post-emergence, 240 h, read-out: Plant response rating, Kochia
Summary of the method: as §1

[9] = tested on: ragweed (common ragweed, Ambrosia elatior); assay: Test A postemergence; settings: Ambrosia artemisiifolia, post-emergence, 240 h, read-out: Plant response rating, Ragweed
Summary of the method: as §1

[10] = tested on: corn (Zea mays); assay: Test A postemergence; settings: Zea mays, post-emergence, 240 h
Summary of the method: as §1

[11] = tested on: pigweed (Amaranthus retroflexus); assay: Test A postemergence; settings: Amaranthus retroflexus, post-emergence, 240 h, read-out: Plant response rating, Pigweed
Summary of the method: as §1

[12] = tested on: Galium (catchweed bedstraw, Galium aparine); assay: Test A postemergence; settings: Galium, post-emergence, 240 h, read-out: Plant response rating, Galium
Summary of the method: as §1

[13] = tested on: giant foxtail (Setaria faberii); assay: Test A postemergence; settings: Setaria faberi, post-emergence, 240 h, read-out: Plant response rating, Foxtail, Giant
Summary of the method: as §1

[14] = tested on: wheat (Triticum aestivum); assay: Test A postemergence; settings: Triticum aestivum, post-emergence, 240 h, read-out: Plant response rating, Wheat
Summary of the method: as §1

[15] = tested on: barnyardgrass (Echinochloa crus-galli); assay: Test A postemergence; settings: Echinochloa crus-galli, post-emergence, 240 h, read-out: Plant response rating, Barnyardgrass
Summary of the method: as §1

[16] = 125 g ai/ha, preemergence, visual rating after approx. 10 d, 0 to 100 scale where 0 is no effect and 100 is complete control
[17] = Preemergence, 31 g ai/ha, 0 to 100 scale (0 no effect, 100 complete control)
[18] = 125 g ai/ha, postemergence, visual injury after approximately 10 d, 0 to 100 scale (0 no effect, 100 complete control)
[19] = Postemergence, 31 g ai/ha, visual injury after approx. 10 d, 0 to 100 scale, 0 no effect, 100 complete control

COc1cc([C@H]2CN(C)C(=O)[C@@H]2C(=O)Nc2cccc(F)c2F)ccc1C(F)(F)F [Compound 770]
pest or weed control at 125 g/ha [1, 16]: 0% | pest or weed control at 31 g/ha [1, 17]: 0% | pest or weed control at 125 g/ha [2, 16]: 0% | pest or weed control at 31 g/ha [2, 17]: 0% | pest or weed control at 125 g/ha [3, 16]: 0% | pest or weed control at 31 g/ha [3, 17]: 0% | pest or weed control at 125 g/ha [4, 16]: 90% | pest or weed control at 31 g/ha [4, 17]: 40% | pest or weed control at 125 g/ha [5, 16]: 90% | pest or weed control at 31 g/ha [5, 17]: 90% | pest or weed control at 125 g/ha [6, 18]: 0% | pest or weed control at 31 g/ha [6, 19]: 0% | pest or weed control at 125 g/ha [7, 18]: 0% | pest or weed control at 31 g/ha [7, 19]: 0% | pest or weed control at 125 g/ha [8, 18]: 40% | pest or weed control at 31 g/ha [8, 19]: 0% | pest or weed control at 125 g/ha [9, 18]: 0% | pest or weed control at 31 g/ha [9, 19]: 0% | Corn plant response rating (crop injury, 0 = no effect, 100 = complete kill) at 125 g/ha [10, 18]: 50% | Corn plant response rating (crop injury, 0 = no effect, 100 = complete kill) at 31 g/ha [10, 19]: 0% | pest or weed control at 125 g/ha [11, 18]: 30% | pest or weed control at 31 g/ha [11, 19]: 0% | pest or weed control at 125 g/ha [12, 18]: 60% | pest or weed control at 31 g/ha [12, 19]: 30% | pest or weed control at 125 g/ha [13, 18]: 70% | pest or weed control at 31 g/ha [13, 19]: 60% | plant injury at 125 g/ha [14, 18]: 0% | plant injury at 31 g/ha [14, 19]: 0% | pest or weed control at 125 g/ha [15, 18]: 60% | pest or weed control at 31 g/ha [15, 19]: 30%
